Data reported in article PMC3163471 (MedChemComm, 2011).

Tested on: breast cancer cell lines
Experiment: Antiproliferative activity, cell line not given
Format: cell-based, human
Conditions: text on structure-activity relationship, Tables 1 and 2

“H-Lys-[3-amino-3(biphenyl)-propionic acid]-Phe-OH [Compound 11]” was tested, and the “Antiproliferative activity in words, compared with compound 5 or the parent” value was “loss of activity”.

With “H-Arg-[3-amino-3(biphenyl)-propionic acid]-Phe-OH [Compound 10]” the “Antiproliferative activity in words, compared with compound 5 or the parent” value was “retained the activity and specificity”.

In the case of “H-Arg-[3-amino-3(1-napthyl)-propionic acid]-Tyr-OH [Compound 6]”, the “Antiproliferative activity in words, compared with compound 5 or the parent” value is reported as “loss of activity”.

For “H-Arg-[3-amino-3(1-napthyl)-propionic acid]-Asp-OH [Compound 7]”, the “Antiproliferative activity in words, compared with compound 5 or the parent” value was “loss of activity”.

For “H-Arg-Pro-[3-amino-3(1-napthyl)-propionic acid]-Tyr-OH [Compound 13]”, the “Antiproliferative activity in words, compared with compound 5 or the parent” value was “activity was lost”.
